Columns and labels:
Type in all cases: cell-based
FRT cells [1] = test: Ussing chamber assay: short-circuit current (chloride ion transport) of cells transfected with WT or engineered CFTR mRNA; sequential forskolin, VX-770, CFTRinh-172
Experimental: Chloride ion transport was measured by an Ussing chamber. This assay provides an indication of chloride flux based on the principle that the epithelium pumps ions from one side to another and ions leak back through tight junctions situated between epithelial cells. The voltage difference between two sides of the epithelium is measured using two voltage electrodes placed near the tissue/epithelium. The voltage is cancelled out by injecting current, using two other electrodes placed away from the epithelium. The short circuit current is measured as net chloride ion transport.
Traces show short-circuit current measurements during sequential additions of forskolin, an activator of CFTR-mediated chloride secretion, and VX-770 (ivacaftor), a potentiator compound that directly increases phosphorylation-dependent CFTR channel opening on amphotericin B-permeabilized membranes. CFTR proteins A-D responded to forskolin activation resulting in increased chloride ion conductance. Forskolin activation was not observed for CFTR Protein E, the ATP hydrolysis deficient E1371Q mutant. Further addition of VX-770 increased conductance in CFTR Proteins B-D.
In this example, activation of various engineered CFTR protein mutants (proteins B-E, discussed above) were compared with the activation of wild type CFTR (protein A) using the Ussing assay as described in Example 3. In this example the engineered CFTR protein activity was tested at a low concentration of 0.35 μg (FIG. 4).
In this example, activities of various engineered phosphomimetic CFTR protein mutants (Table. 9) were compared with the activity of wild-type CFTR using the Ussing chamber assay as described in Example 3.

HEK293 cells = test: CFTR protein expression by protein gel / Western blot (C band); conditions: for C-band expression (quantification of Western blot): FIG. 11A, 11B; for expression in the C band (mature complex glycosylated CFTR): HEK293 lysates, FIG. 18A-18C
Experimental: The CFTR band is depicted by an arrow (FIG. 3A).
To examine the expression of CFTR mutants, expression of the wild-type CFTR, 15E, 13E, and E1371Q mutants was quantified as shown in FIG. 11A and FIG. 11B.
Studies were also performed to assess in vitro translation and tolerability of CFTR mutants. […] The “C band” refers to mature complex glycosylated form of CFTR.

FRT cells [2] = test: Time-course Ussing chamber assay (duration of activity, 22 and 44 hours); conditions: at 44 hours (measured at 22 and 44 hours); FIG. 14A, 14B
Experimental: In this example, duration of activity of various phosphomimetic CFTR mutants were tested in combination with the K14R mutation using a time-course Ussing chamber assay as described in Example 3.
Activity of various CFTR proteins listed in Table 12 were measured at 22 and 44 hours. Short-circuit current (Isc), the movement of ions as measured in the Ussing chamber from active transport, was plotted for each CFTR protein at 22 and 44 hours.

[3] = HEK293 cells, versus wild-type CFTR
[4] = 0.35 μg (low concentration), FRT cells, FIG. 4

## 13E: S422E, S660E, S670E, S686E, T690E, S700E, S712E, S753E, T787E, T788E, T790E, S795E, S813E (codon optimized: SEQ ID NO: 52)
FRT cells [1]; 13 or 15 R-domain substitutions, FRT cells, FIG. 9A, 9B, 11E
  CFTR activity, glutamate (E) versus aspartate (D) substitutions: greater CFTR activity
FRT cells [1]; FIG. 14C
  effect of additional K14R substitution on chloride conductance of the named protein: no effect
FRT cells [1]; maximum activated current, FRT cells, FIG. 11C, 11D
  change in activity when K14R mutation is combined with the named phosphomimetic mutant: no significant increase in the activity
HEK293 cells; [3]
  C-band expression (quantification of Western blot): increased C-band expression
HEK293 cells; HEK293 cells, versus wild-type CFTR, FIG. 11B
  increase in protein (C-band, quantification of Western blot): greater than 2 fold
HEK293 cells
  expression in the C band (mature complex glycosylated CFTR): increased expression in the C band
FRT cells [2]
  remaining activity (short-circuit current, Isc): highest remaining activity at 44 hours

## 15E/K14R: K14R plus the 15E substitutions (codon optimized: SEQ ID NO: 51)
FRT cells [2]
  remaining activity (short-circuit current, Isc): highest remaining activity at 44 hours

## E1371Q/K14R: E1371Q plus K14R (codon optimized: SEQ ID NO: 49)
FRT cells [1]; FRT cells, FIG. 13A, 13B
  activity compared to wild-type CFTR and to E1371Q-only CFTR: increased activity
HEK293 cells; FIG. 13B
  expression compared to wild-type CFTR and to E1371Q-only CFTR: increased expression
HEK293 cells
  expression in the C band (mature complex glycosylated CFTR): increased expression in the C band
FRT cells [2]
  remaining activity (short-circuit current, Isc): high remaining activity at 44 hours

B1: CFTR Protein E: E1371Q, ATP hydrolysis deficient (SEQ ID NO: 44, 48) (nucleic acid)
DNA: GTGCAGCCCCTGCTGCTCGGCAGAATCATCGCCTCATACGATCCAGACAACAAGGAAGAAAGAAGCATCGCCATCTACCTGGGCATTGGCCTCTGCCTCCTGTTTATTGTGCGGACTCTGCTGCTGCACCCAGCAATTTTCGGGTTGCATCATATTGGCATGCAGATGCGCATTGCTATGTTTTCCCTCATCTACAAAAAGACACTGAAACTCAGCTCCCGGGTGCTGGACAAGATCTCCATCGGCCAACTGGTGTCTCTCCTGAGCAATAACTTGAATAAGTTCGACGAAGGGCTGGCCCTGGCACACTTCGTGTGGATTGCCCCCCTGCAGGTGGCCCTGCTGATGGGACTGATTTGGGAACTGCTGCAGGCTAGCGCTTTCTGCGGCCTGGGGTTCCTGATCGTGCTGGCACTGTTTCAGGCAGGCCTGGGCCGTATGATGATGAAGTACAGAGACCAGAGGGCCGGGAAGATCTCCGAACGGCTCGTTATTACCTCTGAGATGATCGAGAACATTCAGTCTGTGAAAGCCTACTGCTGGGAGGAGGCTATGGAGAAGATGATCGAGAATCTGAGACAGACCGAGCTGAAGCTGACCAGAAAGGCCGCCTACGTGAGGTACTTCAACAGCAGTGCCTTCTTCTTCTCTGGCTTCTTCGTTGTGTTTCTGAGCGTGCTGCCATACGCTCTCATCAAAGGCATCATCCTGCGGAAGATCTTCACCACCATCAGCTTTTGCATCGTGCTTAGAATGGCCGTGACCCGGCAGTTCCCATGGGCCGTGCAAACTTGGTATGATTCCCTGGGCGCCATCAACAAAATCCAGGATTTCCTGCAGAAGCAGGAATACAAGACACTCGAATATAATCTCACAACTACTGAGGTGGTTATGGAGAACGTGACTGCCTTCTGGGAGGAGGGGTTCGGAGAGCTTTTTGAGAAGGCAAAACAGAATAACAACAACCGCAAAACCAGCAACGGCGACGACAGCCTGTTCTTCTCCAATTTTTCTCTCCTGGGAACACCCGTCCTCAAAGACATCAACTTTAAGATCGAGAGGGGACAGCTGCTCGCAGTCGCCGGATCCACAGGCGCCGGCAAGACCTCTCTGCTGATGGTTATCATGGGCGAACTGGAGCCATCCGAGGGCAAGATTAAGCACAGTGGAAGAATCTCCTTTTGTAGCCAGTTCAGTTGGATTATGCCCGGCACTATTAAGGAGAATATCATTTTTGGGGTGAGCTATGATGAGTATCGGTATCGGAGCGTTATCAAAGCCTGTCAGCTGGAGGAGGATATCAGCAAATTCGCAGAGAAGGATAATATCGTGCTGGGGGAGGGGGGAATCACCCTGAGCGGAGGCCAGAGAGCCAGAATCTCACTGGCCCGGGCCGTCTACAAGGACGCCGACCTTTACCTTCTGGACAGTCCCTTTGGATATCTGGATGTGCTGACTGAAAAGGAGATCTTCGAGTCTTGTGTGTGCAAG
FRT cells [1]; 0.35 μg (low concentration), FIG. 4
  forskolin activation: forskolin activation at a lower dose in comparison to other constructs tested
FRT cells [1]; [4]
  conductance prior to forskolin addition: significant pre-forskolin conductance
  overall activity compared to wild-type CFTR: overall increased activity
FRT cells [1]; 0.5 μg CFTR (high concentration), amphotericin B-permeabilized membranes, FIG. 3B
  response to forskolin activation (chloride ion conductance, short-circuit current): not observed
FRT cells [1]; FIG. 12A, 12B
  forskolin activation and increased activity by addition of VX-770: minimal response to VX-770
FRT cells [1]; FRT cells, FIG. 12A, 12B
  activity / conductance (short circuit current) compared to wild-type CFTR: overall higher conductance than the wild-type CFTR
FRT cells [1]; doses 0.05-0.35 μg/well, FIG. 5
  activity pattern across doses: consistent activity pattern across treatments
FRT cells [1]; short-circuit conductivity, FIG. 15C
  effect of K1218R mutation on activity of the named CFTR protein: decreases activity
HEK293 cells; [3]
  C-band expression (quantification of Western blot): increased C-band expression

Source: patent US12611442B2, “mRNA encoding engineered CFTR” (Translate Bio, Inc., priority 2019, dated 2026)
